Measured values from patent US7138361B2, “Herbicidal heterocycles” (E. I. du Pont de Nemours and Company, priority 2000, dated 2006).

Key:
Format in all cases: in vivo
[1] = system: morningglory (Ipomoea hederacea); experiment: Test C preemergence
Excerpt: (§1) Seeds of plant species selected from bermudagrass (Cynodon dactylon), Surinam grass (Brachiaria decumbens), cocklebur (Xanthium strumarium), corn (Zea mays), crabgrass (Digitaria sanguinalis), woolly cupgrass (Eriochloa villosa), giant foxtail (Setaria faberii), goosegrass (Eleusine indica), johnsongrass (Sorghum halepense), kochia (Kochia scoparia), lambsquarters (Chenopodium album), morningglory (Ipomoea hederacea), yellow nutsedge (Cyperus esculentus), pigweed (Amaranthus retroflexus), common ragweed (Ambrosia elatior), soybean (Glycine max) and velvetleaf (Abutilon theophrasti) were planted and treated preemergence with test chemicals formulated in a non-phytotoxic solvent mixture which included a surfactant.
(§2) At the same time, plants selected from these crop and weed species and also winter barley (Hordeum vulgare), blackgrass (Alopecurus myosuroides), canary grass (Phalaris minor), chickweed (Stellaria media), downy brome (Bromus tectorum), green foxtail (Setaria viridis), Italian ryegrass (Lolium multiflorum), wheat (Triticum aestivum), wild oat (Avena fatua) and windgrass (Apera spica-venti) were treated with postemergence applications of some of the test chemicals formulated in the same manner. Plants ranged in height from 2 to 18 cm (1- to 4-leaf stage) for postemergence treatments. Plant species in the flooded paddy test consisted of rice (Oryza saliva), smallflower flatsedge (Cyperus difformis), duck salad (Heteranthera limosa) and barnyardgrass (Echinochloa crus-galli) grown to the 2-leaf stage for testing. Treated plants and controls were maintained in a greenhouse for 12 to 14 days, after which time all species were compared to controls and visually evaluated. Plant response ratings, summarized in Table C, are based on a scale of 0 to 100 where 0 is no effect and 100 is complete control. A dash (-) response means no test result.

[2] = system: crabgrass (Digitaria sanguinalis); experiment: Test C preemergence
Excerpt: as §1, §2

[3] = system: common ragweed (Ambrosia elatior); experiment: Test C preemergence
Excerpt: as §1, §2

[4] = system: giant foxtail (Setaria faberii); experiment: Test C preemergence
Excerpt: as §1, §2

[5] = system: cocklebur (Xanthium strumarium); experiment: Test C preemergence
Excerpt: as §1, §2

[6] = system: goosegrass (Eleusine indica); experiment: Test C preemergence
Excerpt: as §1, §2

[7] = system: bermudagrass (Cynodon dactylon); experiment: Test C preemergence
Excerpt: as §1, §2

[8] = system: Sunflower; experiment: Test C preemergence; settings: Rate 500 g/ha, scale 0 to 100
Excerpt: as §1, §2

[9] = system: velvetleaf (Abutilon theophrasti); experiment: Test C preemergence
Excerpt: as §1, §2

[10] = system: Surinam grass (Brachiaria decumbens); experiment: Test C preemergence
Excerpt: as §1, §2

[11] = system: Sunflower; experiment: Test C preemergence; settings: Rate 250 g/ha, visual evaluation after 12 to 14 days
[12] = system: lambsquarters (Chenopodium album); experiment: Test B preemergence
Procedure, shortened: (§3)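 Greenhouse test: chemicals are formulated in a surfactant-containing non-phytotoxic solvent and applied either preemergence to planted seeds or postemergence to plants 2 to 18 cm tall. Response is rated visually versus controls after 13 to 15 days, 0 meaning no effect and 100 complete control.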

[13] = system: crabgrass (Digitaria sanguinalis); experiment: Test B preemergence
Procedure, shortened: as §3

[14] = system: barnyardgrass (Echinochloa crus-galli); experiment: Test B preemergence
Procedure, shortened: as §3

[15] = system: giant foxtail (Setaria faberii); experiment: Test B preemergence
Procedure, shortened: as §3

[16] = system: rice (Oryza saliva); experiment: Test B preemergence
Procedure, shortened: as §3

[17] = system: cocklebur (Xanthium strumarium); experiment: Test B preemergence
Procedure, shortened: as §3

[18] = system: corn (Zea mays); experiment: Test B preemergence
Procedure, shortened: as §3

[19] = system: velvetleaf (Abutilon theophrasti); experiment: Test B preemergence
Procedure, shortened: as §3

[20] = system: morning glory (Ipomoea hederacea); experiment: Test B preemergence
Procedure, shortened: as §3

[21] = system: pigweed (Amaranthus retroflexus); experiment: Test B preemergence
Procedure, shortened: as §3

[22] = system: Surinam grass (Brachiaria decumbens); experiment: Test B preemergence
Procedure, shortened: as §3

[23] = Preemergence, Rate 500 g/ha, scale 0 to 100
[24] = preemergence, Rate 125 g/ha, scale 0 to 100, 0 no effect, 100 complete control
[25] = Rate 62 g/ha, scale 0 to 100, 0 no effect, 100 complete control
[26] = preemergence, Rate 250 g/ha, visual evaluation after 12 to 14 days
[27] = Preemergence, Rate 500 g/ha, scale 0 to 100, 0 no effect, 100 complete control
[28] = preemergence, Rate 125 g/ha, scale of 0 to 100 where 0 is no effect and 100 is complete control, 13 to 15 days

O=C1C(n2ccc(C3CCCCC3)n2)OCN1c1cccc(C(F)(F)F)c1 (centres unmarked) [Compound 51]
Plant response rating, Morningglory [1, 23]: 20 | Plant response rating, Morningglory [1, 24]: 0 | Plant response rating, Crabgrass [2, 23]: 100 | Plant response rating, Crabgrass [2, 25]: 70 | Plant response rating (0 to 100), Crabgrass [2, 26]: 100 | Plant response rating, Crabgrass [2, 24]: 100 | Plant response rating, Ragweed, Common [3, 23]: 0 | Plant response rating (0 to 100), Ragweed, Common [3, 26]: 0 | Plant response rating, Ragweed, Common [3, 24]: 0 | Plant response rating, Foxtail, Giant [4, 23]: 100 | Plant response rating, Foxtail, Giant [4, 25]: 70 | Plant response rating (0 to 100), Foxtail, Giant [4, 26]: 100 | Plant response rating, Foxtail, Giant [4, 24]: 0 | Plant response rating, Cocklebur [5, 23]: 0 | Plant response rating, Cocklebur [5, 25]: 0 | Plant response rating (0 to 100), Cocklebur [5, 26]: 0 | Plant response rating, Cocklebur [5, 24]: 0 | Plant response rating, Goosegrass [6, 23]: 100 | Plant response rating, Goosegrass [6, 25]: 80 | Plant response rating (0 to 100), Goosegrass [6, 26]: 100 | Plant response rating, Goosegrass [6, 24]: 90 | Plant response rating, Bermudagrass [7, 23]: 100 | Plant response rating, Bermudagrass [7, 25]: 90 | Plant response rating (0 to 100 where 0 is no effect and 100 is complete control), Bermudagrass [7, 26]: 100 | Plant response rating, Bermudagrass [7, 24]: 100 | Plant response rating, Sunflower [8]: 30 | Plant response rating, Velvetleaf [9, 23]: 30 | Plant response rating (0 to 100), Velvetleaf [9, 26]: 30 | Plant response rating, Velvetleaf [9, 24]: 0 | Plant response rating, Surinam grass [10, 23]: 70 | Plant response rating, Surinam grass [10, 25]: 30 | Plant response rating (0 to 100), Surinam grass [10, 26]: 70 | Plant response rating, Surinam grass [10, 24]: 30 | Plant response rating (0 to 100), Sunflower [11]: 30 | Plant response rating, Lambsquarters [12, 27]: 100 | Plant response rating, Lambsquarters [12, 28]: 100 | Plant response rating, Crabgrass [13, 27]: 100 | Plant response rating, Crabgrass [13, 28]: 100 | Plant response rating, Barnyardgrass [14, 27]: 80 | Plant response rating, Barnyardgrass [14, 28]: 80 | Plant response rating, Foxtail, Giant [15, 27]: 50 | Plant response rating, Foxtail, Giant [15, 28]: 0 | Plant response rating, Rice [16, 27]: 0 | Plant response rating, Rice [16, 28]: 0 | Plant response rating, Cocklebur [17, 27]: 0 | Plant response rating, Cocklebur [17, 28]: 0 | Plant response rating, Corn [18, 27]: 0 | Plant response rating, Corn [18, 28]: 0 | Plant response rating, Velvetleaf [19, 27]: 0 | Plant response rating, Velvetleaf [19, 28]: 0 | Plant response rating, Morningglory [20, 27]: 0 | Plant response rating, Morningglory [20, 28]: 0 | Plant response rating, Pigweed [21, 27]: 100 | Plant response rating, Pigweed [21, 28]: 0 | Plant response rating, Surinam grass [22, 27]: 20 | Plant response rating, Surinam grass [22, 28]: 0
